Test results from US20240208992A1, “MACROCYCLES AS CFTR MODULATORS” (Idorsia Pharmaceuticals Ltd, priority 2021, published 2024).

Target: human F508del-CFTR (Homo sapiens, UniProt P13569, DEL508-508)
Assay: F508del-CFTR cell surface expression (corrector activity), DiscoveRx ß-galactosidase complementation chemiluminescence assay in recombinant U2OS cell line;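 also: U2OS cells co-expressing ProLink-tagged F508del-CFTR and a membrane-anchored enzyme acceptor, where more surface CFTR restores β-galactosidase activity measured by chemiluminescence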
Settings: for EC50: EC50, F508del-CFTR cell surface expression, U2OS cells, 16h compound incubation, geomean values; for Emax: U2OS, in relation to Emax of corrector lumacaftor (=100%), arithmetic mean values

Sequence of human F508del-CFTR (P13569 with tags, fused parts or gaps DEL508-508): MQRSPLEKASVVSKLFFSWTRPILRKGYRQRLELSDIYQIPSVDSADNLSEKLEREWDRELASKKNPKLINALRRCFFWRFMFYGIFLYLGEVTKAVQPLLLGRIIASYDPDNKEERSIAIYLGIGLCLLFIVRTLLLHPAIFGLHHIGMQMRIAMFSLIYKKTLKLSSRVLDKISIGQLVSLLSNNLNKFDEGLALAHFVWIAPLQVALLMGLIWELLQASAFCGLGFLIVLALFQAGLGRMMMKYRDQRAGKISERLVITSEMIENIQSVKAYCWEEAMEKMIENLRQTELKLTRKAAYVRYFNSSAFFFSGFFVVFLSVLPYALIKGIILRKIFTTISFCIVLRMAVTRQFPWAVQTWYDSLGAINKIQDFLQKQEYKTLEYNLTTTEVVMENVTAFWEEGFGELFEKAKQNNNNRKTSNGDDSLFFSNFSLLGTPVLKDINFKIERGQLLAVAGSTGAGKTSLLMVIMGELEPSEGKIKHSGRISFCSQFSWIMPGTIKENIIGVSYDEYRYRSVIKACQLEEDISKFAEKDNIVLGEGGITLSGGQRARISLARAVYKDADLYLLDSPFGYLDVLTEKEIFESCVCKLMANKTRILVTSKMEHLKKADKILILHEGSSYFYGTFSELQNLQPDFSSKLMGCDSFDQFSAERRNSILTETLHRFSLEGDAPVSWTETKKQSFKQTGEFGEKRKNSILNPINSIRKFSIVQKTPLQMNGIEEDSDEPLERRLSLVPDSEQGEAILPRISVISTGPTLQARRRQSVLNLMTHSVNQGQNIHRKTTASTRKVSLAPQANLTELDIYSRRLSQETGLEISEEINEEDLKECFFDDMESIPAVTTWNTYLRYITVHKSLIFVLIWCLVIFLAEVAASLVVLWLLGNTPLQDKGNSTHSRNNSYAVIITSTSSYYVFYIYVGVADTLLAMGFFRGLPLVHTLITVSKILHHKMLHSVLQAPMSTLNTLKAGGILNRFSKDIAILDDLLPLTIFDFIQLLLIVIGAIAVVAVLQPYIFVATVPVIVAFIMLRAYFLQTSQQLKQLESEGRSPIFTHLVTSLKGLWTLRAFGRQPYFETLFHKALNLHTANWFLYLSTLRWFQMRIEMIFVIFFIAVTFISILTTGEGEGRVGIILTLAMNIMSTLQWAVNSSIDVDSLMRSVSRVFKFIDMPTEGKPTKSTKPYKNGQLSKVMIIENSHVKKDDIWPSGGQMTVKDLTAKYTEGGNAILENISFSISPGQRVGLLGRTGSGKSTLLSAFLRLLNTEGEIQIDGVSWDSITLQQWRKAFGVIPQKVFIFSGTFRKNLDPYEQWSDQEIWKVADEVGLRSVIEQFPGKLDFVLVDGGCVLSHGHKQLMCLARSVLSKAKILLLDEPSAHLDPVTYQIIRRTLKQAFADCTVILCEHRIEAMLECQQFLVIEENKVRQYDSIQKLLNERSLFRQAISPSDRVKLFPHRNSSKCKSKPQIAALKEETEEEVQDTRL

| SMILES | EC50 | Emax |
| --- | --- | --- |
| CC[C@@H]1C(=O)N[C@H](Cc2ccccc2)COc2cc(C)nc(OC)c2C(=O)N[C@H](C(=O)NCCc2cccc(OC)c2)CC(=O)N(C)[C@@H](CC(C)C)C(=O)N1C [Example 774, (3R,6R,9S,13S)-3-benzyl-6-ethyl-9-isobutyl-16-methoxy-N-(3-methoxyphenethyl)-7,10,18-trimethyl-5,8,11,15-tetraoxo-2,3,4,5,6,7,8,9,10,11,12,13,14,15-tetradecahydropyrido[3,4-p][1]oxa[4,7,10,14]tetraazacycloheptadecine-13-carboxamide] | 751 nM | 345% |
| COc1nc(C)cc2c1C(=O)N[C@H](C(=O)NCCc1cc(C)no1)CC(=O)N(C)[C@@H](CC(C)C)C(=O)N(C)[C@H](CC(F)F)C(=O)N[C@H](Cc1ccccc1)CO2 [Example 775, (3R,6R,9S,13S)-3-benzyl-6-(2,2-difluoroethyl)-9-isobutyl-16-methoxy-7,10,18-trimethyl-N-(2-(3-methylisoxazol-5-yl)ethyl)-5,8,11,15-tetraoxo-2,3,4,5,6,7,8,9,10,11,12,13,14,15-tetradecahydropyrido[3,4-p][1]oxa[4,7,10,14]tetraazacycloheptadecine-13-carboxamide] | 875 nM | 359% |
| COc1cc(CCNC(=O)[C@@H]2CC(=O)N(C)[C@@H](CC(C)C)C(=O)N(C)[C@H](CC(F)(F)F)C(=O)N[C@H](Cc3ccccc3)COc3ccnc(OC)c3C(=O)N2)on1 [Example 776, (3R,6R,9S,13S)-3-benzyl-9-isobutyl-16-methoxy-N-(2-(3-methoxyisoxazol-5-yl)ethyl)-7,10-dimethyl-5,8,11,15-tetraoxo-6-(2,2,2-trifluoroethyl)-2,3,4,5,6,7,8,9,10,11,12,13,14,15-tetradecahydropyrido[3,4-p][1]oxa[4,7,10,14]tetraazacycloheptadecine-13-carboxamide] | 325 nM | 360% |
| CC(C)C[C@H]1C(=O)N2CCCC[C@H]2C(=O)N[C@H](Cc2ccccc2)COc2ccc3ncc(F)cc3c2C(=O)N[C@H](C(=O)NCCc2cc(C3CC3)no2)CC(=O)N1C [Example 777, (9S,13S,19aS,22R)-22-benzyl-N-(2-(3-cyclopropylisoxazol-5-yl)ethyl)-5-fluoro-13-isobutyl-12-methyl-7,11,14,20-tetraoxo-7,8,9,10,11,12,13,14,17,18,19,19a,20,21,22,23-hexadecahydro-16H-pyrido[2′,1′:6,7][1]oxa[4,7,10,14]tetraazacycloheptadecino[16,17-f]quinoline-9-carboxamide] | 875 nM | 216% |
| CC(C)C[C@H]1C(=O)N2CCCC[C@@H]2C(=O)N[C@H](Cc2ccccc2)COc2ccc3ncc(F)cc3c2C(=O)N[C@H](C(=O)NCCn2ncc(C3CC3)n2)CC(=O)N1C [Example 778, (9S,13S,19aR,22R)-22-benzyl-N-(2-(4-cyclopropyl-2H-1,2,3-triazol-2-yl)ethyl)-5-fluoro-13-isobutyl-12-methyl-7,11,14,20-tetraoxo-7,8,9,10,11,12,13,14,17,18,19,19a,20,21,22,23-hexadecahydro-16H-pyrido[2′,11:6,7][1]oxa[4,7,10,14]tetraazacycloheptadecino[16,17-f]quinoline-9-carboxamide] | 141 nM | 302% |
| CC(C)C[C@H]1C(=O)N2CCCC[C@H]2C(=O)N[C@H](Cc2ccccc2)COc2ccc3ncc(F)cc3c2C(=O)N[C@H](C(=O)NCCn2ncc(C3CC3)n2)CC(=O)N1C [Example 779, (9S,13S,19aS,22R)-22-benzyl-N-(2-(4-cyclopropyl-2H-1,2,3-triazol-2-yl)ethyl)-5-fluoro-13-isobutyl-12-methyl-7,11,14,20-tetraoxo-7,8,9,10,11,12,13,14,17,18,19,19a,20,21,22,23-hexadecahydro-16H-pyrido[2′,11:6,7][1]oxa[4,7,10,14]tetraazacycloheptadecino[16,17-f]quinoline-9-carboxamide] | 811 nM | 213% |
| CC(C)C[C@H]1C(=O)N2CCCC[C@@H]2C(=O)N[C@H](Cc2ccccc2)COc2ccc3ncc(F)cc3c2C(=O)N[C@H](C(=O)NCCc2nc(C3CC3)no2)CC(=O)N1C [Example 780, (9S,13S,19aR,22R)-22-benzyl-N-(2-(3-cyclopropyl-1,2,4-oxadiazol-5-yl)ethyl)-5-fluoro-13-isobutyl-12-methyl-7,11,14,20-tetraoxo-7,8,9,10,11,12,13,14,17,18,19,19a,20,21,22,23-hexadecahydro-16H-pyrido[2′,1′:6,7][1]oxa[4,7,10,14]tetraazacycloheptadecino[16,17-f]quinoline-9-carboxamide] | 116 nM | 280% |
| CC(C)C[C@H]1C(=O)N2CCCC[C@@H]2C(=O)N[C@H](Cc2ccccc2)COc2ccc3ncc(F)cc3c2C(=O)N[C@H](C(=O)NCCc2cc(C3CC3)on2)CC(=O)N1C [Example 781, (9S,13S,19aR,22R)-22-benzyl-N-(2-(5-cyclopropylisoxazol-3-yl)ethyl)-5-fluoro-13-isobutyl-12-methyl-7,11,14,20-tetraoxo-7,8,9,10,11,12,13,14,17,18,19,19a,20,21,22,23-hexadecahydro-16H-pyrido[2′,1′:6,7][1]oxa[4,7,10,14]tetraazacycloheptadecino[16,17-f]quinoline-9-carboxamide] | 124 nM | 296% |
| COc1cccc2c1C(=O)N[C@H](C(=O)NCCc1noc(C3CC3)n1)CC(=O)N(C)[C@@H](CC(C)C)C(=O)N(C)[C@H](Cc1nc(-c3ccc(F)cn3)no1)C(=O)N[C@H](Cc1ccccc1)CO2 [Example 782, (3R,6R,9S,13S)-3-benzyl-N-(2-(5-cyclopropyl-1,2,4-oxadiazol-3-yl)ethyl)-6-((3-(5-fluoropyridin-2-yl)-1,2,4-oxadiazol-5-yl)methyl)-9-isobutyl-16-methoxy-7,10-dimethyl-5,8,11,15-tetraoxo-2,3,4,5,6,7,8,9,10,11,12,13,14,15-tetradecahydropyrido[3,4-p][1]oxa[4,7,10,14]tetraazacycloheptadecine-13-carboxamide] | 859 nM | 439% |
| COc1cc(CCNC(=O)[C@@H]2CC(=O)N(C)[C@@H](CC(C)C)C(=O)N(C)[C@H](Cc3nc(-c4ccc(F)cn4)no3)C(=O)N[C@H](Cc3ccccc3)COc3ccnc(OC)c3C(=O)N2)on1 [Example 783, (3R,6R,9S,13S)-3-benzyl-6-((3-(5-fluoropyridin-2-yl)-1,2,4-oxadiazol-5-yl)methyl)-9-isobutyl-16-methoxy-N-(2-(3-methoxyisoxazol-5-yl)ethyl)-7,10-dimethyl-5,8,11,15-tetraoxo-2,3,4,5,6,7,8,9,10,11,12,13,14,15-tetradecahydropyrido[3,4-p][1]oxa[4,7,10,14]tetraazacycloheptadecine-13-carboxamide] | 889 nM | 410% |
| CC[C@@H]1C(=O)N[C@H](Cc2ccccc2)COc2cc(C)nc(OC)c2C(=O)N[C@H](C(=O)NCCc2cc(OC)no2)CC(=O)N(C)[C@@H](CC(C)C)C(=O)N1C [Example 784, (3R,6R,9S,13S)-3-benzyl-6-ethyl-9-isobutyl-16-methoxy-N-(2-(3-methoxyisoxazol-5-yl)ethyl)-7,10,18-trimethyl-5,8,11,15-tetraoxo-2,3,4,5,6,7,8,9,10,11,12,13,14,15-tetradecahydropyrido[3,4-p][1]oxa[4,7,10,14]tetraazacycloheptadecine-13-carboxamide] | 311 nM | 391% |
| COc1cc(CCNC(=O)[C@@H]2CC(=O)N(C)[C@@H](CC(C)C)C(=O)N(C)[C@H](CC(F)F)C(=O)N[C@H](Cc3ccccc3)COc3cc(C)nc(OC)c3C(=O)N2)on1 [Example 785, (3R,6R,9S,13S)-3-benzyl-6-(2,2-difluoroethyl)-9-isobutyl-16-methoxy-N-(2-(3-methoxyisoxazol-5-yl)ethyl)-7,10,18-trimethyl-5,8,11,15-tetraoxo-2,3,4,5,6,7,8,9,10,11,12,13,14,15-tetradecahydropyrido[3,4-p][1]oxa[4,7,10,14]tetraazacycloheptadecine-13-carboxamide] | 210 nM | 365% |
| COc1cc(CCNC(=O)[C@@H]2CC(=O)N(C)[C@@H](CC(C)C)C(=O)N(C)[C@H](C)C(=O)N[C@H](Cc3ccccc3)COc3ccc4ncc(F)cc4c3C(=O)N2)on1 [Example 786, (3S,7S,10R,13R)-13-benzyl-20-fluoro-7-isobutyl-N-(2-(3-methoxyisoxazol-5-yl)ethyl)-6,9,10-trimethyl-1,5,8,11-tetraoxo-1,2,3,4,5,6,7,8,9,10,11,12,13,14-tetradecahydro-[1]oxa[4,7,10,14]tetraazacycloheptadecino[16,17-f]quinoline-3-carboxamide] | 156 nM | 337% |
| CC(C)C[C@H]1C(=O)N(C)[C@H](C)C(=O)N[C@H](Cc2ccccc2)COc2ccc3ncc(F)cc3c2C(=O)N[C@H](C(=O)NCCn2ncc(C3CC3)n2)CC(=O)N1C [Example 787, (3S,7S,10R,13R)-13-benzyl-N-(2-(4-cyclopropyl-2H-1,2,3-triazol-2-yl)ethyl)-20-fluoro-7-isobutyl-6,9,10-trimethyl-1,5,8,11-tetraoxo-1,2,3,4,5,6,7,8,9,10,11,12,13,14-tetradecahydro-[1]oxa[4,7,10,14]tetraazacycloheptadecino[16,17-f]quinoline-3-carboxamide] | 190 nM | 323% |
| COc1cccc(CCNC(=O)[C@@H]2CC(=O)N(C)[C@@H](CC(C)C)C(=O)N(C)[C@H](C)C(=O)N[C@H](Cc3ccccc3)COc3ccc4nccn4c3C(=O)N2)c1 [Example 788, (3S,7S,10R,13R)-13-benzyl-7-isobutyl-N-(3-methoxyphenethyl)-6,9,10-trimethyl-1,5,8,11-tetraoxo-1,2,3,4,5,6,7,8,9,10,11,12,13,14-tetradecahydroimidazo[1′,2′:1,6]pyrido[2,3-p][1]oxa[4,7,10,14]tetraazacycloheptadecine-3-carboxamide] | 549 nM | 344% |
